This note sets out measurements from PubChem BioAssay AID1918949 (Molecular Pharmacology Branch, DTP, NCI, 2023).

Values joined by “and” are separate entries in the source; they are usually repeats but may differ in a detail not shown here. Equal entries are not always repeated. Where only a bound is given, the exact number is not on record here.

This assay has as its system K24384-001-R-PDC complex spheroid viability. Description: Anticancer human tumor K24384-001-R-PDC patient-derived pancreatic adenocarcinoma cell line growth inhibition. Particulars: for viability, T/C: stronger effect = lower value. An outline of the steps:
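Multicellular complex spheroids of tumor cells with human endothelial cells (HUVEC) and mesenchymal stem cells; the LSD1 inhibitor iadademstat was combined with standard-of-care or investigational agents. Top concentration at or near clinical Cmax, half-log dilutions; final DMSO ≤0.25%.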

[1] abbreviates: curve of first compound, second compound 0.1 µM.
[2] abbreviates: curve of first compound, second compound 0.316 µM.
[3] abbreviates: curve of first compound, second compound 1 µM.
Where [4] appears, read: curve of first compound, second compound 3.16 µM.
Setting [5] is: curve of first compound, second compound 10 µM.
[6] abbreviates: second compound 0.1 µM, first compound 0.000949 µM.
Setting [7] is: second compound 0.1 µM, first compound 0.003 µM.
[8] abbreviates: second compound 0.1 µM, first compound 0.00949 µM.
[9] abbreviates: second compound 0.1 µM, first compound 0.03 µM.
The mark [10] stands for this setting: second compound 0.1 µM, first compound 0.0949 µM.
The mark [11] stands for this setting: second compound 0.1 µM, first compound 0.3 µM.
Setting [12] is: second compound 0.316 µM, first compound 0.000949 µM.
The mark [13] stands for this setting: second compound 0.316 µM, first compound 0.003 µM.
Where [14] appears, read: second compound 0.316 µM, first compound 0.00949 µM.
[15] abbreviates: second compound 0.316 µM, first compound 0.03 µM.
Setting [16] is: second compound 0.316 µM, first compound 0.0949 µM.
[17] abbreviates: second compound 0.316 µM, first compound 0.3 µM.
[18] abbreviates: second compound 1 µM, first compound 0.000949 µM.
Where [19] appears, read: second compound 1 µM, first compound 0.003 µM.
Where [20] appears, read: second compound 1 µM, first compound 0.00949 µM.
[21] abbreviates: second compound 1 µM, first compound 0.03 µM.
[22] abbreviates: second compound 1 µM, first compound 0.0949 µM.
Setting [23] is: second compound 1 µM, first compound 0.3 µM.
[24] abbreviates: second compound 3.16 µM, first compound 0.000949 µM.
[25] abbreviates: second compound 3.16 µM, first compound 0.003 µM.
Where [26] appears, read: second compound 3.16 µM, first compound 0.00949 µM.
Setting [27] is: second compound 3.16 µM, first compound 0.03 µM.
Setting [28] is: second compound 3.16 µM, first compound 0.0949 µM.
Where [29] appears, read: second compound 3.16 µM, first compound 0.3 µM.
The mark [30] stands for this setting: second compound 10 µM, first compound 0.000949 µM.
The mark [31] stands for this setting: second compound 10 µM, first compound 0.003 µM.
[32] abbreviates: second compound 10 µM, first compound 0.00949 µM.
The mark [33] stands for this setting: second compound 10 µM, first compound 0.03 µM.
The mark [34] stands for this setting: second compound 10 µM, first compound 0.0949 µM.
Setting [35] is: second compound 10 µM, first compound 0.3 µM.
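Note: spheroids exposed to agents for seven days before luminescence viability reading.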
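Throughout, for viability, T/C: 100% = DMSO vehicle control viability.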

Consider `CC(C)c1c(-c2ccccc2)nc2c(C#N)c[nH]n2c1=O` + NC1CC1c1ccc(-c2cccc(O)c2)cc1, for which the IC50 was over 10 µM under setting [1]; over 10 µM under setting [2]; over 10 µM under setting [3]; over 10 µM under setting [4]; over 10 µM under setting [5]. For the same compound, the viability, T/C is 84% (second compound 0.1 µM, first compound 0.0316 µM); 114% (second compound 0.1 µM, first compound 0.1 µM); 71% (second compound 0.1 µM, first compound 0.316 µM); 86.7% (second compound 0.1 µM, first compound 1 µM); 73.1% (second compound 0.1 µM, first compound 3.16 µM); 76.3% (second compound 0.1 µM, first compound 10 µM). Also, the viability, T/C is 119% (second compound 0.316 µM, first compound 0.0316 µM); 84.1% (second compound 0.316 µM, first compound 0.1 µM); 65.9% (second compound 0.316 µM, first compound 0.316 µM); 86% (second compound 0.316 µM, first compound 1 µM); 90.8% (second compound 0.316 µM, first compound 3.16 µM); 74.8% (second compound 0.316 µM, first compound 10 µM). Besides, the viability, T/C is 82.3% (second compound 1 µM, first compound 0.0316 µM); 62.7% (second compound 1 µM, first compound 0.1 µM); 72.6% (second compound 1 µM, first compound 0.316 µM); 65% (second compound 1 µM, first compound 1 µM); 70.1% (second compound 1 µM, first compound 3.16 µM); 69.8% (second compound 1 µM, first compound 10 µM). For the same compound, the viability, T/C is, setting by setting: (second compound 3.16 µM, first compound 0.0316 µM) 85.5%; (second compound 3.16 µM, first compound 0.1 µM) 79%; (second compound 3.16 µM, first compound 0.316 µM) 91.4%; (second compound 3.16 µM, first compound 1 µM) 66.9%; (second compound 3.16 µM, first compound 3.16 µM) 67.3%; (second compound 3.16 µM, first compound 10 µM) 72.2%. The viability, T/C is 78.8% (second compound 10 µM, first compound 0.0316 µM); 86.2% (second compound 10 µM, first compound 0.1 µM); 84.8% (second compound 10 µM, first compound 0.316 µM); 76.5% (second compound 10 µM, first compound 1 µM); 70.8% (second compound 10 µM, first compound 3.16 µM); 76.8% (second compound 10 µM, first compound 10 µM).
With `CCN(c1cc(-c2ccc(CN3CCOCC3)cc2)cc(C(=O)NCc2c(C)cc(C)[nH]c2=O)c1C)C1CCOCC1`, the viability, T/C runs as follows: (compound 0.00949 µM) 114% and 95.8%; (compound 0.03 µM) 107% and 113%; (compound 0.0949 µM) 117% and 106%; (compound 0.3 µM) 96.4% and 99.3%; (compound 0.949 µM) 81.8% and 84.4%; (compound 3 µM) 63.5% and 72.9%. Besides, the IC50 (curve of compound) is over 3 µM.
Consider `CCc1c2c(nc3ccc(O)cc13)-c1cc3c(c(=O)n1C2)COC(=O)[C@]3(O)CC` + NC1CCC(NC2CC2c2ccccc2)CC1, for which the IC50 is under 0.000949 µM under setting [1]; under 0.000949 µM under setting [2]; under 0.000949 µM under setting [3]; under 0.000949 µM under setting [4]; under 0.000949 µM under setting [5]. For the same compound, the viability, T/C reads like this: under setting [6], 46.4%; under setting [7], 36.2%; under setting [8], 30.9%; under setting [9], 8.66%; under setting [10], 5.82%; under setting [11], 4.86%. The viability, T/C is 46.2% under setting [12]; 43.4% under setting [13]; 35% under setting [14]; 10.1% under setting [15]; 4.59% under setting [16]; 4.24% under setting [17]. In addition, the viability, T/C was 41.5% under setting [18]; 39% under setting [19]; 31.5% under setting [20]; 9.09% under setting [21]; 5.26% under setting [22]; 4.62% under setting [23]. In addition, the viability, T/C reads like this: under setting [24], 47.4%; under setting [25], 43%; under setting [26], 33.2%; under setting [27], 9.39%; under setting [28], 4.03%; under setting [29], 4.04%. Moreover, the viability, T/C was 45% under setting [30]; 38.1% under setting [31]; 26.3% under setting [32]; 9.03% under setting [33]; 3.67% under setting [34]; 3.1% under setting [35].
In the case of `Nc1ncn(C2CC(O)C(CO)S2)c(=O)n1` (centres undefined) + NC1CCC(NC2CC2c2ccccc2)CC1, the IC50 runs as follows: under setting [1], over 0.3 µM; under setting [2], over 0.3 µM; under setting [3], over 0.3 µM; under setting [4], over 0.3 µM; under setting [5], over 0.3 µM. Further, the viability, T/C was 92.8% under setting [6]; 85.4% under setting [7]; 93% under setting [8]; 70.1% under setting [9]; 78.1% under setting [10]; 63.3% under setting [11]. Besides, the viability, T/C under setting [12] is 97.4%; the viability, T/C under setting [13] is 77.4%; the viability, T/C under setting [14] is 80.6%; the viability, T/C under setting [15] was 79.7%; the viability, T/C under setting [16] is 85.1%; the viability, T/C under setting [17] is 59.5%. Moreover, the viability, T/C by setting is: under setting [18], 82.2%; under setting [19], 78.1%; under setting [20], 105%; under setting [21], 78.5%; under setting [22], 73.5%; under setting [23], 65.2%. In addition, the viability, T/C is 98.1% under setting [24]; 97.9% under setting [25]; 85% under setting [26]; 75% under setting [27]; 81.7% under setting [28]; 48.5% under setting [29]. The viability, T/C under setting [30] was 90.3%; the viability, T/C under setting [31] was 98.6%; the viability, T/C under setting [32] is 71.2%; the viability, T/C under setting [33] was 79.5%; the viability, T/C under setting [34] was 69.5%; the viability, T/C under setting [35] is 61.9%.
For the compound `CC1COCCN1c1cc(C2(S(C)(=N)=O)CC2)nc(-c2ccnc3[nH]ccc23)n1` (centres undefined), the viability, T/C by setting is: (compound 0.0316 µM) 103% and 94.9%; (compound 0.1 µM) 97.9% and 102%; (compound 0.316 µM) 107% and 81.7%; (compound 1 µM) 75.8% and 67.1%; (compound 3.16 µM) 45.8% and 42.4%; (compound 10 µM) 48.6% and 44.5%. Where the note is “curve of compound”, the IC50 was 2.83 µM and 2.53 µM.

Usually IC50 stands for the concentration at which inhibition is half-maximal. A word on the viability, T/C: it is the result in the treated group divided by that in the control group, in per cent.
